Data set [1] can be described thus: Dose escalation: dose-limiting toxicities and maximum tolerated dose. It is filed as in vivo. An excerpt:
This Phase 1, open-label, dose-escalation and expansion study aimed to determine the safety, tolerability and preliminary efficacy of sapanisertib in patients with advanced solid tumours. During dose-escalation, patients received one of four sapanisertib dosing schedules: once daily (QD), once weekly (QW; days 1, 8, 15 and 22), QD for 3 days on/4 days off each week (QD × 3dQW; days 1–3, 8–10, 15–17 and 22–24) and QD for 5 days on/2 days off each week (QD × 5dQW; days 1–5, 8–12, 15–19 and 22–26) in a 28-day cycle with dose escalation based on a modified Fibonacci schema.
The maximum tolerated dose (MTD) was to be determined in the QD schedule before enrolment of initial single-patient cohorts for the QW and QDx3d QW schedules. […] Subsequent dose cohorts for that schedule included 3–6 patients. […] Once the MTD was identified for each of the dosing schedules, an additional six patients were enrolled to obtain further PK and safety data prior to expansion.

Data set [2] has as its system p4EBP1, pS6, pPRAS40 and pNDRG1 (TORC1/2 biomarkers). The data set can be described thus: Pharmacodynamics in skin biopsies (IHC). It is filed as in vivo, human. To be noted: doses of ≥4 mg; baseline vs days 8–15 (3 h postdose) of cycle 1. As to the method: The tissue PK and PD of sapanisertib were investigated in skin and tumour biopsies. During dose escalation, 3-mm core skin biopsies were collected predose and on any day from 8–15 (3 h postdose) of cycle 1 for immunohistochemistry (IHC) assessment of mTORC1 downstream effects (p4EBP1, pS6) and pNDRG1 (Mosaic Laboratories, Lake Forest, CA). […] Archival tumour tissues for assessment of prognostic markers were collected at baseline.
During dose-escalation, the PD effect of sapanisertib on downstream effectors of TORC1 (p4EBP1 and pS6) and TORC2 (pPRAS40 and pNDRG1) was measured in skin-tissue biopsies from 88 patients collected at baseline and days 8–15 (3 h postdose) of cycle 1. […] PD data in tumour tissue were limited due to the small number of samples. For the five patients with paired tumour samples available for review (biopsies at baseline and cycle 1, week 2), the levels of p4EBP1, pS6, pPRAS40 and pNDRG1 decreased after sapanisertib treatment (Supplementary Fig. 4).

Regarding `CC(C)n1nc(-c2ccc3oc(N)nc3c2)c2c(N)ncnc21` [Sapanisertib], the “Recommended Phase 2 dose” value turned out to be 5 mg in data set [1] (QD) and 30 mg in data set [1] (QW). Also, the DLTs result was “Grade 3 hyperglycaemia” in data set [1] (QD 4 mg); “Grade 3 maculo-papular rash; grade 3 diarrhoea; grade 3 asthenia; grade 5 ventricular fibrillation/cardiac arrest” in data set [1] (QD 6 mg); “Grade 3 hyperglycaemia and grade 4 anaemia; grade 3 maculo-papular rash” in data set [1] (QD 7 mg); “Grade 3 hypophosphatemia” in data set [1] (QD × 3dQW 9 mg); “Grade 3 stomatitis and grade 3 dehydration; grade 3 asthenia” in data set [1] (QD × 3dQW 12 mg); “Grade 3 stomatitis” in data set [1] (QD × 3dQW 16 mg). Further, the DLTs entry was “Grade 3 stomatitis; grade 3 stomatitis” in data set [1] (QD × 3dQW 20 mg); “Grade 3 fatigue; grade 3 asthenia; grade 3 stomatitis” in data set [1] (QD × 5dQW 13 mg); “Grade 3 dry mouth and fatigue; grade 3 asthenia” in data set [1] (QW 40 mg). Moreover, the “Maximum tolerated dose (MTD)” value was found to be 6 mg in data set [1] (QD schedule), 9 mg in data set [1] (QD × 3dQW schedule), 7 mg in data set [1] (QD × 5dQW schedule) and 40 mg in data set [1] (QW schedule). Besides, the “Change in p4EBP1, pS6, pPRAS40 and pNDRG1 in skin” value in data set [2] is given as “Treatment-related decreases”.
